Measured values from patent US20180118721A1, “PYRIMIDINE DERIVATIVES” (Merck Patent GmbH, priority 2015, published 2018).

Biological target: T1, purified human recombinant MTH1 (human MTH1, residues 42-197) (Homo sapiens, UniProt P36639)
T1 construct: human MTH1, residues 42-197, Uniprot-ID: P36639, expressed in E. coli; made in house; host or cells: E. coli
Assay: MTH1 enzymatic assay (luminescence-based, PPiLight)
Type: biochemical
Details: 6 μM 8-oxo-dGTP, Table 1, grouped
Description: The IC50 value was determined by a MTH1 enzymatic assay. The assay comprises the principal steps of incubating a mixture of MTH1, the compound in question at different concentrations and 8-oxo-2′-deoxyguanosine-5′-triphosphate (8-oxo-dGTP) in assay buffer. Nucleotide triphosphate hydrolysis by MTH1, i.e. decomposition of 8-oxo-2′-deoxyguanosine-5′-triphosphate, produces 8-oxo-2′-deoxyguanosine-5′-monophosphate (8-oxo-dGMP) and pyrophosphate (PPi). The amount of generated pyrophosphate (PPi) is then measured by a bioluminescent reaction. In detail: The MTH1 (human mutT homologue 1) enzymatic assay is performed as a luminescence-based 384-well assay. […] The assay buffer contains 100 mM Tris-acetate pH 7.5, 40 mM NaCl, 10 mM Mg(OAc)2, 0.005% Tween 20 and 2 mM dithiothreitol (DTT). […] Then, in a second step, the substrate 8-oxo-dGTP is added and the reaction mixture is incubated for 30 minutes at 22° C. The pharmacologically relevant assay volume is 5 PI. The final concentrations in the assay during incubation of the reaction mixture are 0.1-0.2 nM, typically 0.1 nM, MTH1 and 6 μM 8-oxo-dGTP. After incubation of the reaction mixture, the generation of pyrophosphate (PPi) as a result of nucleotide triphosphate (8-oxo-dGTP) hydrolysis by MTH1 is detected using the PPiLight inorganic pyrophosphate assay kit (Lonza) (third step). 2 to 5 μl, such as 3 to 5 μl, typically 3 or 4 μl, for instance 4 μl, of a 1:1 mixture of PPiLight converting reagent (AMP) and PPiLight detection reagent are added to the reaction mixture. In the presence of pyrophosphate, the detection reagent catalyzes the conversion of AMP to ATP. Luciferase then produces light from the newly formed ATP and luciferin. The amount of light produced is directly proportional to the amount of PPi in the sample. Following signal development for 1 h the plates are analysed in an EnVision (PerkinElmer) microplate reader using the ultra sensitive luminescence option. Data are processed employing the Genedata Screener software. In particular, IC50 values are determined in the usual manner (using the Hill Equation) by fitting a dose-response curve to the data points using nonlinear regression analysis.
Hill Equation: Y=S0+(Sinf−S0)/(1+(10^logIC50/10^c)^n); Y: luminescence signal (response), S0: activity level at zero concentration of test compound, Sinf=activity level at infinite concentration, Hill coefficient n=measure of the slope at IC50, c=concentration in logarithmic units corresponding to the values on the x-axis of the dose response curve plot

| IC50 [nM] | Compound |
| --- | --- |
| 1 to 100 | Nc1nc(NC2CC2)cc(N2CC[C@](O)(c3ccccc3)C2)n1 (single isomer, unassigned) [Example 37] |
| 1 to 100 | Nc1nc(NC2CC2)cc(N2CC[C@@](O)(c3ccccc3)C2)n1 (single isomer, unassigned) [Example 38] |
| 1 to 100 | CNc1cc(N2CCC[C@@](O)(c3ccccc3)C2)nc(N)n1 (single isomer, unassigned) [Example 90] |
| < 1 | CNc1cc(N2CCC(CO)C2)nc(N)n1 (centres unmarked) [Example 1, [1-(2-amino-6-methylamino-pyrimidin-4-yl)-pyrrolidin-3-yl]-methanol] |
| < 1 | Nc1nc(NC2CC2)cc(N2CCC(CO)C2)n1 (centres unmarked) [Example 2, [1-(2-amino-6-cyclopropyl amino-pyrimidin-4-yl)-pyrrolidin-3-yl]-methanol] |
| 1 to 100 | Nc1nc(NC2CC2)cc(N2CCC(F)(F)C2)n1 [Example 4, N^4-cyclopropyl-6-(3,3-difluoro-pyrrolidin-1-yl)-pyrimidine-2,4-diamine] |
| 1 to 100 | Nc1nc(NC2CC2)cc(N2CCC(O)C2)n1 (centres unmarked) [Example 6, 1-(2-amino-6-cyclopropylamino-pyrimidin-4-yl)-pyrrolidin-3-ol] |
| < 1 | CNc1cc(N2CCC(OC)C2)nc(N)n1 (centres unmarked) [Example 9, 86-(3-methoxy-pyrrolidin-1-yl)-N^4-methyl-pyrimidine-2,4-diamine-formate] |
| 1 to 100 | COC1CCN(c2cc(NC3CC3)nc(N)n2)C1 (centres unmarked) [Example 10, N^4-cyclopropyl-6-(3-methoxy-pyrrolidin-1-yl)-pyri midine-2,4-diamine-formate] |
| 1 to 100 | Nc1nc(NC2CC2)cc(N2CCC[C@@H]2CO)n1 [Example 11, [(R)-1-(2-amino-6-cyclopropylamino-pyrimidin-4-yl)-pyrrolidin-2-yl]-methanol-formate] |
| 1 to 100 | CNc1cc(N2CCC[C@H]2CO)nc(N)n1 [Example 12, [(S)-1-(2-amino-6-methylamino-pyrimidin-4-yl)-pyrrolidin-2-yl]-methanol] |
| 1 to 100 | Nc1nc(NC2CC2)cc(N2CCC[C@H]2CO)n1 [Example 13, [(S)-1-(2-amino-6-cyclopropylamino-pyrimidin-4-yl)-pyrrolidin-2-yl]-methanol] |
| < 1 | Nc1nc(NC2CC2)cc(N2CCCC2Cc2ccccc2Cl)n1 (centres unmarked) [Example 36, 6-[2-(2-Chloro-benzyl)-pyrrolidin-1-yl]-N4-cyclopropyl-pyrimidine-2,4-diamine] |
| 1 to 100 | CC1CCN(c2cc(NC3CC3)nc(N)n2)C1C (centres unmarked) [Example 39, N4-Cyclopropyl-6-(2,3-dimethyl-pyrrolidin-1-yl)-pyrimidine-2,4-diamine] |
| 1 to 100 | CCC1(O)CCN(c2cc(NC3CC3)nc(N)n2)C1 (centres unmarked) [Example 40, 1-(2-Amino-6-cyclopropylamino-pyrimidin-4-yl)-3-ethyl-pyrrolidin-3-ol] |
| 1 to 100 | CC1C(c2ccccc2)CCN1c1cc(NC2CC2)nc(N)n1 (centres unmarked) [Example 41, N4-Cyclopropyl-6-(2-methyl-3-phenyl-pyrrolidin-1-yl)-pyrimidine-2,4-diamine] |
| 1 to 100 | Nc1nc(NC2CC2)cc(N2CCC(O)(C(F)(F)F)C2)n1 (centres unmarked) [Example 42, 1-(2-Amino-6-cyclopropylamino-pyrimidin-4-yl)-3-trifluoromethyl-pyrrolidin-3-ol] |
| 1 to 100 | NC(=O)[C@@H]1CCN(c2cc(NC3CC3)nc(N)n2)C1 [Example 59, (R)-1-(2-Amino-6-cyclopropylamino-pyrimidin-4-yl)-pyrrolidine-3-carboxylic acid amide] |
| 1 to 100 | CNc1cc(N2CC[C@@H](O)C2)nc(N)n1 [Example 60, (R)-1-(2-Amino-6-methylamino-pyrimidin-4-yl)-pyrrolidin-3-ol] |
| 1 to 100 | NC(=O)[C@H]1CCN(c2cc(NC3CC3)nc(N)n2)C1 [Example 61, (S)-1-(2-Amino-6-cyclopropylamino-pyrimidin-4-yl)-pyrrolidine-3-carboxylic acid amide] |

| IC50 [nM] | Compound |
| --- | --- |
| < 1 | CNc1cc(N2CC[C@@H](CO)C2)nc(N)n1 [Example 64, [(R)-1-(2-Amino-6-methylamino-pyrimidin-4-yl)-pyrrolidin-3-yl]-methanol] |
| < 1 | CNc1cc(N2CC[C@H](CO)C2)nc(N)n1 [Example 65, [(S)-1-(2-Amino-6-methylamino-pyrimidin-4-yl)-pyrrolidin-3-yl]-methanol] |
| < 1 | Nc1nc(NC2CC2)cc(N2CC[C@@H](CO)C2)n1 [Example 66, [(R)-1-(2-Amino-6-cyclopropylamino-pyrimidin-4-yl)-pyrrolidin-3-yl]-methanol] |
| 1 to 100 | Nc1nc(NC2CC2)cc(N2CC[C@H](CO)C2)n1 [Example 67, [(S)-1-(2-Amino-6-cyclopropylamino-pyrimidin-4-yl)-pyrrolidin-3-yl]-methanol] |
| 1 to 100 | CCNc1cc(N2CCC(F)(F)C2)nc(N)n1 [Example 68, 6-(3,3-Difluoro-pyrrolidin-1-yl)-N4-ethyl-pyrimidine-2,4-diamine] |
| 1 to 100 | CC(C)Nc1cc(N2CCC(F)(F)C2)nc(N)n1 [Example 69, 6-(3,3-Difluoro-pyrrolidin-1-yl)-N4-isopropyl-pyrimidine-2,4-diamine] |
| < 1 | Nc1nc2c(c(N3CC[C@@H](O)C3)n1)CCCN2 [Example 70, (R)-1-(2-Amino-5,6,7,8-tetrahydro-pyrido[2,3-d]pyrimidin-4-yl)-pyrrolidin-3-ol] |
| 1 to 100 | Nc1nc(NCC2CC2)cc(N2CCC(F)(F)C2)n1 [Example 71, N4-Cyclopropylmethyl-6-(3,3-difluoro-pyrrolidin-1-yl)-pyrimidine-2,4-diamine] |
| 1 to 100 | CCCNc1cc(N2CCC(F)(F)C2)nc(N)n1 [Example 72, 6-(3,3-Difluoro-pyrrolidin-1-yl)-N4-propyl-pyrimidine-2,4-diamine] |
| 1 to 100 | Nc1nc2c(c(N3CC[C@H](O)C3)n1)CCCN2 [Example 73, (S)-1-(2-Amino-5,6,7,8-tetrahydro-pyrido[2,3-d]pyrimidin-4-yl)-pyrrolidin-3-ol-formiate] |
| > 100 | FC1(F)CCN(c2ncnc3c2CCCN3)C1 [Example 74, 4-(3,3-Difluoro-pyrrolidin-1-yl)-5,6,7,8-tetrahydro-pyrido[2,3-d]pyrimidine] |
| > 100 | NC(=O)[C@@H]1CCN(c2nc(N)nc3c2CCCN3)C1 [Example 75, (R)-1-(2-Amino-5,6,7,8-tetrahydro-pyrido[2,3-d]pyrimidin-4-yl)-pyrrolidine-3-carboxylic acid amide-trifluoroacetate] |
| 1 to 100 | CNc1cc(N2CCCC(O)(c3ccccc3)C2)nc(N)n1 (centres unmarked) [Example 79, 1-(2-Amino-6-methylamino-pyrimidin-4-yl)-3-phenyl-piperidin-3-ol] |
| > 100 | Nc1nc(NC2CC2)cc(N2CCCC2C(=O)O)n1 (centres unmarked) [Example 80, 1-(2-Amino-6-cyclopropylamino-pyrimidin-4-yl)-pyrrolidine-2-carboxylic acid] |
| < 1 | CNc1cc(N2CCCC2Cc2ccccc2OC)nc(N)n1 (centres unmarked) [Example 82, 6-[2-(2-Methoxy-benzyl)-pyrrolidin-1-yl]-N4-methyl-pyrimidine-2,4-diamine] |
| < 1 | CNc1cc(N2CCCC2C(C)(C)c2ccccc2)nc(N)n1 (centres unmarked) [Example 83, N4-Methyl-6-[2-(1-methyl-1-phenylethyl)-pyrrolidin-1-yl]-pyrimidine-2,4-diamine] |
| < 1 | CNc1cc(N2CCCC2Cc2ccccc2C)nc(N)n1 (centres unmarked) [Example 89, N4-Methyl-6-[2-(2-methyl-benzyl)-pyrrolidin-1-yl]-pyrimidine-2,4-diamine] |
| < 1 | CNc1cc(N2CCC[C@@H]2Cc2ccccc2OC)nc(N)n1 [Example 93, 6-[(R)-2-(2-Methoxy-benzyl)-pyrrolidin-1-yl]-N4-methyl-pyrimidine-2,4-diamine] |
| > 100 | CNc1cc(N2CC(c3ccccc3)CC2=O)nc(N)n1 (centres unmarked) [Example 96, 1-(2-Amino-6-methylamino-pyrimidin-4-yl)-4-phenyl-pyrrolidin-2-one] |
| > 100 | CNc1cc(N2C(=O)CC[C@H]2CO)nc(N)n1 [Example 99, (S)-1-(2-Amino-6-methylamino-pyrimidin-4-yl)-5-hydroxymethyl-pyrrolidin-2-one] |

| Compound | IC50 [nM] |
| --- | --- |
| CNc1cc(N2CCCCC2Cc2ccccc2OC)nc(N)n1 (single isomer, unassigned) [Example 106] | < 1 |
